Values of other authors in US7621907B2, “Implantable drug delivery system” (Alcon, Inc., priority 2002, dated 2009).
Counter-ions that a name gives are not always drawn.

Details: descriptive statement, no test described

Row | Compound | water solubility
1 | CC(C)NCC(O)COc1ccc(CCOCC2CC2)cc1 (centres unmarked) [betaxolol HCl] | relatively high
2 | NC(=O)Cc1cccc(C(=O)c2ccccc2)c1N [nepafenac] | relatively low
